The results in this text go back to patent US20040087590A1, “Novel biphenyl and biphenyl-like cannabinoids” (University of Connecticut, priority 2002, published 2004).

Like-named read-outs stand apart in the source and are kept apart here.

The target in one experiment is T1, CB1 cannabinoid receptor (Rattus norvegicus, UniProt P20272).
T1 construct: membranes were prepared from rat forebrain membranes; from tissue; host or cells: rat forebrain membranes
As to the kind of experiment: CB1 receptor binding assay ([3H] CP-55,940 displacement, rat forebrain membranes). Conditions: 0.8 nM [3H] CP-55,940, read-out: CB1 (nM) binding affinity (Ki). The procedure: Some inventive analogs were tested for CB2 receptor binding affinity and for CB1 receptor affinity (to determine selectivity). As used herein, “binding affinity” is represented by the Ki value which is the inhibition constant correlated with the concentration of an analog required to occupy the 50% of the total number (Bmax) of the receptors. The lower the Ki value, the higher the binding affinity. […] For the CB1 receptor binding studies, membranes were prepared from rat forebrain membranes according to the procedure of P. R. Dodd et al, A Rapid Method for Preparing Synaptosomes: Comparison with Alternative Procedures, Brain Res., 107-118 (1981). The binding of the novel analogues to the CB1 cannabinoid receptor was assessed as described in W. A. Devane et al, Determination and Characterization of a Cannabinoid Receptor in a Rat Brain, Mol. Pharmacol., 34, 605-613 (1988) and A. Charalambous et al, 5′-azido Δ^8-THC: A Novel Photoaffinity Label for the Cannabinoid Receptor, J. Med. Chem., 35, 3076-3079 (1992) with the following changes. The above articles are incorporated by reference herein.
Membranes, previously frozen at −80° C., were thawed on ice. To the stirred suspension was added three volumes of TME (25 mM Tris-HCl buffer, 5 mM MgCl2 and 1 mM EDTA) at a pH 7.4. The suspension was incubated at 4° C. for 30 min. At the end of the incubation, the membranes were pelleted and washed three times with TME.
The treated membranes were subsequently used in the binding assay described below. Approximately 30 μg of membranes were incubated in silanized 96-well microtiter plate with TME containing 0.1% essentially fatty acid-free bovine serum albumin (BSA), 0.8 nM [^3H] CP-55,940, and various concentrations of test materials in a final volume of 200 μL. The assays were incubated for 1 hour at 30° C. and then immediately filtered using Packard Filtermate 196 harvester and Whatman GF/C filterplates and washed with wash buffer (TME) containing 0.5% BSA. Radioactivity was detected using MicroScint 20 scintillation cocktail added directly to the dried filterplates, and the filterplates were counted using a Packard Instruments Top-Count. Nonspecific binding was assessed using 100 nM CP-55,940. Data collected from three independent experiments performed with duplicate determinations was normalized between 100% and 0% specific binding for [^3H] CP-55,940, determined using buffer and 100 nM CP-55,940. The normalized data was analyzed using a 4-parameter nonlinear logistic equation to yield IC50 values. Data from at least two independent experiments performed in duplicate was used to calculate IC50 values which were converted to Ki values using the assumptions of Cheng et al, Relationship Between the Inhibition Constant (Ki) and the concentration of Inhibitor which causes 50% Inhibition (IC50) of an Enzymatic Reaction, Biochem. Pharmacol., 22, 3099-3102, (1973), which is incorporated by reference herein.

The target in a further experiment is T2, CB2 receptor (Mus musculus, UniProt P47936).
T2 construct: membranes were prepared from frozen mouse spleen; from tissue; host or cells: frozen mouse spleen membranes
T2 sequence (P47936 whole entry): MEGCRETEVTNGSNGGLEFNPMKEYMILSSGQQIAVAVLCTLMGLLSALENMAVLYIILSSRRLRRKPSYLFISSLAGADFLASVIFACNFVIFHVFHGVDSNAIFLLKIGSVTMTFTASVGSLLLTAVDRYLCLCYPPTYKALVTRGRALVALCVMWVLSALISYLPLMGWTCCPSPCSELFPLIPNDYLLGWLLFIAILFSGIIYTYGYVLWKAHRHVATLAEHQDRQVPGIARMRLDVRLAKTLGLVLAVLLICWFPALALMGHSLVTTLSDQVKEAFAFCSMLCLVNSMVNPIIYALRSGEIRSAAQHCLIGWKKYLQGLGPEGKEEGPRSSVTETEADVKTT
As to the kind of experiment: CB2 receptor binding assay ([3H] CP-55,940 displacement, mouse spleen membranes). The procedure: The treated membranes were subsequently used in the binding assay described below. Approximately 30 μg of membranes were incubated in silanized 96-well microtiter plate with TME containing 0.1% essentially fatty acid-free bovine serum albumin (BSA), 0.8 nM [^3H] […] Radioactivity was detected using MicroScint 20 scintillation cocktail added directly to the dried filterplates, and the filterplates were counted using a Packard Instruments Top-Count. […] Data collected from three independent experiments performed with duplicate determinations was normalized between 100% and 0% specific binding for [^3H] […] The normalized data was analyzed using a 4-parameter nonlinear logistic equation to yield IC50 values.
Silanized centrifuge tubes were used throughout to minimize receptor loss due to adsorption. The CB2 binding assay was conducted in the same manner as for the CB1 binding assay. The binding affinities (Ki) were also expressed in nanomoles (nM).

[1] abbreviates: mouse spleen membranes, [3H] CP-55,940, read-out: CB2 (nM) binding affinity (Ki).

T1 sequence (P20272 whole entry): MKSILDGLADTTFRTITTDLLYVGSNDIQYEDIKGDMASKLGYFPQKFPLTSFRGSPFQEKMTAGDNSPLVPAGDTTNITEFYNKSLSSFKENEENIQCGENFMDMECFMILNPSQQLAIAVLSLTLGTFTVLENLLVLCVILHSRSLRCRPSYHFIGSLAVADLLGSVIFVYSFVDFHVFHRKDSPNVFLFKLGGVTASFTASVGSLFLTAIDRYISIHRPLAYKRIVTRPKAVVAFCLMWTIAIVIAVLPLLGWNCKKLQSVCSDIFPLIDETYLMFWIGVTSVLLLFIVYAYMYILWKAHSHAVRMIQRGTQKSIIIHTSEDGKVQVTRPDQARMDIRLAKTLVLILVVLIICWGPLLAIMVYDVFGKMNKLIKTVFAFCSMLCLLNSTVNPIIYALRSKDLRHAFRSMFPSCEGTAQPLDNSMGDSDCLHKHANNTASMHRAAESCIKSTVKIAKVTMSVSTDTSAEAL

Turning to `CCCCCCC(C)(C)c1cc(O)c(-c2cc(O)ccc2CO)c(O)c1` [Compound 15], the Ki stood at 141 nM at CB1 cannabinoid receptor and 4.5 nM on CB2 receptor.
Regarding `CCCCCCC(C)(C)c1cc(O)c(-c2cc(CO)ccc2C)c(O)c1` [Compound 28], the Ki came to 70.4 nM at CB1 cannabinoid receptor and 7 nM at CB2 receptor (setting [1]).
In the case of `CCCCCCCN(C)c1cc(O)c(-c2cc(OC)ccc2C(=O)N(C(C)C)C(C)C)c(OC)c1` [Compound 36], the Ki is 1870 nM on CB1 cannabinoid receptor and 154 nM on CB2 receptor.
Turning to `CCCCCCC(C)(C)c1cc(O)c(-c2cc(C)c(OC)c(C)c2)c(O)c1` [Compound 11], the Ki at CB1 cannabinoid receptor was found to be 1080 nM; on CB2 receptor (setting [1]), 12.8 nM.
The corresponding values for `CCCCCCC(C)(C)c1cc(O)c(-c2cc(Cl)ccc2Cl)c(O)c1` [Compound 6] are 7.7 nM and 2.6 nM.
Taken in the same sequence, the figures for `CCCCCCC(C)(C)c1cc(O)c(-c2cc(CO)ccc2CO)c(O)c1` [Compound 27] were 29.6 nM and 2.6 nM.
As to `CCCCCCC(C)(C)c1cc(O)c(-c2cc(F)ccc2CO)c(O)c1` [Compound 26], the Ki on CB1 cannabinoid receptor was 24.5 nM; on CB2 receptor (setting [1]), 1.8 nM.
Regarding `CCCCCCC(C)(C)c1cc(O)c(-c2cc(C(F)(F)F)cc(C(F)(F)F)c2)c(O)c1` [Compound 2], the Ki on CB1 cannabinoid receptor was 9.7 nM; at CB2 receptor (setting [1]), 0.9 nM.
The corresponding values for `CCCCCCC(C)(C)c1cc(O)c(-c2c(F)cccc2F)c(O)c1` [Compound 8] are 40.3 nM and 13.4 nM.
The corresponding values for `CCCCCCC(C)(C)c1cc(O)c(-c2cccc(C(=O)OCC)c2)c(O)c1` [Compound 22] are 241 nM and 0.8 nM.
On to `CCCCCCC(C)(C)c1cc(O)c(-c2cccc(C#N)c2)c(O)c1` [Compound 31], for which the Ki turned out to be 20 nM on CB1 cannabinoid receptor and 1.1 nM at CB2 receptor (setting [1]).
Turning to `CCCCCCC(C)(C)c1cc(O)c(-c2cc(Br)ccc2CO)c(O)c1` [Compound 32], the Ki on CB1 cannabinoid receptor worked out at 8.6 nM; on CB2 receptor it was 0.7 nM.
Taken in the same sequence, the figures for `CCCCCCC(C)(C)c1cc(O)c(-c2cncc(C(=O)OCC)c2)c(O)c1` [Compound 21] were 17.2 nM and 0.2 nM.
On to `CCCCCCC(C)(C)c1cc(O)c(-c2cc(C)ccc2F)c(O)c1` [Compound 5], for which the figures for the Ki at CB1 cannabinoid receptor and at CB2 receptor (setting [1]) were 6.5 nM and 2.3 nM, respectively.
For `CCCCCCC(C)(C)c1cc(O)c(-c2cccc(/C=C/C(=O)OCC)c2)c(O)c1` [Compound 30], the results for the Ki at CB1 cannabinoid receptor and at CB2 receptor (setting [1]) were 397 nM and 10 nM, respectively.
For `CCCCCCC(C)(C)c1cc(O)c(-c2cc(C)c(N)c(C)c2)c(O)c1` [Compound 12], the Ki at CB1 cannabinoid receptor turned out to be 797 nM; on CB2 receptor (setting [1]), 8 nM.
For `CCCCCCC(C)(C)c1cc(O)c(-c2cc(C)c(O)c(C)c2)c(O)c1` [Compound 10], the Ki was determined as 1360 nM at CB1 cannabinoid receptor and 15.3 nM on CB2 receptor (setting [1]).
Turning to `CCCCCCC(C)(C)c1cc(O)c(-c2cccc(C(C)=O)c2)c(O)c1` [Compound 24], the values for the Ki at CB1 cannabinoid receptor and at CB2 receptor were 297 nM and 11.3 nM, respectively.
`CCCCCCC(C)(C)c1cc(O)c(-c2cc(Cl)cc(Cl)c2)c(OC)c1` [Compound 7]: the values for the inhibitory constant (Ki) on CB1 cannabinoid receptor and on CB2 receptor (setting [1]) were 105 nM and 13.9 nM, respectively.
In the case of `CCCCCCC(C)(C)c1cc(O)c(-c2cc([N+](=O)[O-])cc([N+](=O)[O-])c2)c(O)c1` [Compound 3], the results for the Ki on CB1 cannabinoid receptor and at CB2 receptor (setting [1]) were 199 nM and 3.5 nM, respectively.
As to `CCCCCCC(C)(C)c1cc(O)c(-c2ccccc2CO)c(O)c1` [Compound 14], the Ki at CB1 cannabinoid receptor turned out to be 53.8 nM; on CB2 receptor (setting [1]), 1.4 nM.
On to `CCCCCCC(C)(C)c1cc(O)c(-c2cc(F)cc(F)c2)c(O)c1` [Compound 4], for which the Ki is 57.5 nM on CB1 cannabinoid receptor and 8.4 nM on CB2 receptor (setting [1]).
As to `CCCCCCC(C)(C)c1cc(O)c(-c2ccc(C(=O)OCC)o2)c(O)c1` [Compound 29], the values for the Ki at CB1 cannabinoid receptor and at CB2 receptor were 3220 nM and 35.4 nM, respectively.
With `CCCCCCC(C)(C)c1cc(O)c(-c2cc(O)ccc2CCCO)c(O)c1` [Compound 25], the values for the Ki on CB1 cannabinoid receptor and on CB2 receptor (setting [1]) were 12.2 nM and 1 nM, respectively.
`CCCCCCC(C)(C)c1cc(O)c(-c2c(Cl)ccc(Cl)c2Cl)c(O)c1` [Compound 9]: the Ki was 23.2 nM on CB1 cannabinoid receptor and 3.4 nM at CB2 receptor.
On to `CCCCCCC(C)(C)c1cc(O)c(-c2cc(Cl)cc(Cl)c2)c(O)c1` [Compound 1], for which the Ki on CB1 cannabinoid receptor was 2.6 nM; on CB2 receptor (setting [1]) it was 0.6 nM.
